This note sets out measurements from patent US11453660B2, “Androgen receptor and glucocorticoid receptor modulators” (ONCOSTELLAE, S.L., priority 2017, dated 2022).

This assay deals with T1, Rat Androgen Receptor (Rattus norvegicus, UniProt P15207).
T1 construct: purchased Life Technologies A15880
T1 sequence (P15207 646-902 limits assumed): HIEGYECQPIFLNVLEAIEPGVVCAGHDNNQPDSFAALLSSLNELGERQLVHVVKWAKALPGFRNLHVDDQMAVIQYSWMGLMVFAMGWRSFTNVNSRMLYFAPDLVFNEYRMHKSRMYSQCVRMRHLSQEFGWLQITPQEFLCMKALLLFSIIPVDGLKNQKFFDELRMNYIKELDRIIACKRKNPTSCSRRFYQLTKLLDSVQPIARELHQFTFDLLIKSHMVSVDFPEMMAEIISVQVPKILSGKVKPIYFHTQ
Put plainly: Rat Androgen Receptor Binding (polarscreen AR competitor assay, fluorescence polarization). The following applies: displacement of Fluormone AL Green, 4 hours at RT, read-out: AR rat-fluorimetric. The protocol: Pharmacological Activity Rat Androgen Receptor Binding
The assay was carried out following the instructions of polarscreen AR competitor assay green kit (Life Technologies, Cat #.: A15880). Briefly, the test is based on measuring the changes of fluorescence polarization shown by the Fluormone AL Green. Thus, when the Fluormone is bound to the receptor, a fluorescence polarization is observed that diminishes when a ligand competes for the receptor binding site and the Fluormone gets displaced.
The inhibition values for each of the compounds are measured in duplicate at 1 and 10 μM and the plate is incubated for 4 hours at RT. Fluorescence polarization is the measured in a Tecan Infinite M1000 Pro reader (λexc=485 nm, λem=535 nm). In order to obtain a dose-response curve and calculate the potency of inhibition (expressed as IC50) for AR, a series of 1:10 dilutions in test in 1× buffer from 10 μM to 0.1 nM for each compound was carried out.
Background: Fluorescence polarisation rises when a labelled molecule tumbles more slowly, as on binding a larger partner.
As for `CC(=O)C1=C(C)NC(C)=C(C(C)=O)C1c1csc2ccc(-c3cccnc3)cc12` [Example M1, 1,1′-(2,6-dimethyl-4-(5-(pyridin-3-yl)benzo[b]thiophen-3-yl)-1,4-dihydro-pyridine-3,5-diyl)diethanone], the IC50 was at least 1 µM.

Turning to `COC(=O)C1=C(N)NC(C)=C(C(=O)C2CC2)C1c1csc2ccccc12` (stereo not shown) [Example D2, Methyl 2-amino-4-(benzo[b]thiophen-3-yl)-5-(cyclopropanecarbonyl)-6-methyl-1,4-dihydropyridine-3-carboxylate], the IC50 was at least 1 µM.

On to `CC(=O)C1=C(C)NC(C)=C(C(C)=O)C1c1csc2ccc(N3CCN(C)CC3)cc12` [Example H5, 1,1′-(2,6-dimethyl-4-(5-(4-methylpiperazin-1-yl)benzo[b]thiophen-3-yl)-1,4-dihydropyridine-3,5-diyl)bis(ethan-1-one)], for which the IC50 is at least 1 µM.

For `COC(=O)C1=C(C)NC(C)=C(C(C)=O)C1c1csc2ccc(C(=O)N3CCN(C)CC3)cc12` (stereo not shown) [Example J17, Methyl 5-acetyl-2,6-dimethyl-4-(5-(4-methylpiperazine-1-carbonyl)benzo[b]thiophen-3-yl)-1,4-dihydropyridine-3-carboxylate], the IC50 is at least 1 µM.

As for `COC(=O)C1=C(C)NC(C)=C(C(C)=O)C1c1csc2ccc(C(=O)O)cc12` (stereo not shown) [Example J14, 3-(3-acetyl-5-(methoxycarbonyl)-2,6-dimethyl-1,4-dihydropyridin-4-yl)benzo[b]thiophene-5-carboxylic acid], the IC50 was at least 1 µM.

Consider `CC(=O)C1=C(C)NC(C2CC2)=C(C(C)=O)C1c1csc2ccccc12` (stereo not shown) [Example J6, 1,1′-(4-(benzo[b]thiophen-3-yl)-2-cyclopropyl-6-methyl-1,4-dihydro-pyridine-3,5-diyl)diethanone], for which the IC50 is at least 1 µM.

Consider `CC(=O)C1=C(C)NC(C)=C(C(=O)OC2CCCCC2)C1c1csc2ccccc12` (stereo not shown) [Example C3, Cyclohexyl 5-acetyl-4-(benzo[b]thiophen-3-yl)-2,6-dimethyl-1,4-dihydropyridine-3-carboxylate], for which the IC50 was under 0.1 µM.

Turning to `CC(=O)C1=C(C)NC(C)=C(C(C)=O)C1c1csc2ccc(F)cc12` [Example H3, 1,1′-(4-(5-fluorobenzo[b]thiophen-3-yl)-2,6-dimethyl-1,4-dihydropyridine-3,5-diyl)bis(ethan-1-one)], the IC50 was at least 1 µM.

Consider `CC(=O)C1=C(C)NC(C)=C(C(=O)OCC2CC2)C1c1csc2ccc(F)cc12` (stereo not shown) [Example C21, Cyclopropylmethyl 5-acetyl-4-(5-fluorobenzo[b]thiophen-3-yl)-2,6-dimethyl-1,4-dihydropyridine-3-carboxylate], for which the IC50 was under 0.1 µM.

As to `CC(=O)C1=C(C)NC(C)=C(C(C)=O)C1c1csc2ccncc12` [Example H13, 1,1′-(2,6-Dimethyl-4-(thieno[3,2-c]pyridin-3-yl)-1,4-dihydropyridine-3,5-diyl)bis(ethan-1-one)], the IC50 was at least 1 µM.

Consider `CC(=O)C1=C(C)NC(C)=C(C(C)=O)C1c1csc2cnccc12` [Example H14, 1,1′-(2,6-Dimethyl-4-(thieno[2,3-c]pyridin-3-yl)-1,4-dihydropyridine-3,5-diyl)bis(ethan-1-one)], for which the IC50 is at least 1 µM.

With `CC(=O)C1=C(C)NC(C)=C(C(C)=O)C1c1csc2ccc(C(=O)NC3CC3)cc12` [Example H9, N-cyclopropyl-3-(3,5-diacetyl-2,6-dimethyl-1,4-dihydropyridin-4-yl)benzo[b]thiophene-5-carboxamide], the IC50 is at least 1 µM.

For the molecule `COc1ccc2c(C3C(C(C)=O)=C(C)NC(C)=C3C(C)=O)csc2c1` [Example G3, 1,1′-(4-(6-Methoxybenzo[b]thiophen-3-yl)-2,6-dimethyl-1,4-dihydropyridine-3,5-diyl)diethanone], the IC50 was at least 1 µM.

`CC(=O)C1=C(C)NC(C)=C(C(C)=O)C1c1csc2ccc(Br)cc12` [Example H2, 1,1′-(4-(5-bromobenzo[b]thiophen-3-yl)-2,6-dimethyl-1,4-dihydropyridine-3,5-diyl)diethanone]: the IC50 was under 0.1 µM.

For `CC(=O)C1=C(C)NC(C)=C(C(=O)OCc2cncc(-c3cccnc3)c2)C1c1csc2ncccc12` (stereo not shown) [Example L8, [3,3′-bipyridin]-5-ylmethyl 5-acetyl-2,6-dimethyl-4-(thieno[2,3-b]pyridin-3-yl)-1,4-dihydropyridine-3-carboxylate], the IC50 is at least 1 µM.

As to `COC(=O)C1=C(C)NC(C)=C(C(C)=O)C1c1csc2ccc(F)cc12` (stereo not shown) [Example J11, Methyl 5-acetyl-4-(5-fluorobenzo[b]thiophen-3-yl)-2,6-dimethyl-1,4-dihydropyridine-3-carboxylate], the IC50 was under 0.1 µM.

On to `CC(=O)C1=C(C)NC(C)=C(C(C)=O)C1c1csc2ccc(C(=O)NCC3CC3)cc12` [Example H10, N-(cyclopropylmethyl)-3-(3,5-diacetyl-2,6-dimethyl-1,4-dihydropyridin-4-yl)benzo[b]thiophene-5-carboxamide], for which the IC50 was at least 1 µM.

For `CCOC(=O)C1=C(C)NC(C)=C(C(C)=O)C1c1csc2ccccc12` (stereo not shown) [Example J2, Ethyl 5-acetyl-4-(benzo[b]thiophen-3-yl)-2,6-dimethyl-1,4-dihydropyridine-3-carboxylate], the IC50 was under 0.1 µM.

Take `COC(=O)C1=C(C)NC(C)=C(C(C)=O)C1c1csc2cnccc12` (stereo not shown) [Example J20, Methyl 5-acetyl-2,6-dimethyl-4-(thieno[2,3-c]pyridin-3-yl)-1,4-dihydropyridine-3-carboxylate]: the IC50 was 0.1 to 1 µM.

In the case of `CC(=O)C1=C(C)NC(C)=C(C(C)=O)C1c1csc2ccc(C(=O)N3CCN(C)CC3)cc12` [Example H11, 1,1′-(2,6-Dimethyl-4-(5-(4-methylpiperazine-1-carbonyl)benzo[b]thiophen-3-yl)-1,4-dihydropyridine-3,5-diyl)bis(ethan-1-one)], the IC50 is at least 1 µM.

With `COC(=O)C1=C(N)NC(C)=C(C(C)=O)C1c1csc2ccc(F)cc12` (stereo not shown) [Example D3, Methyl 5-acetyl-2-amino-4-(5-fluorobenzo[b]thiophen-3-yl)-6-methyl-1,4-dihydropyridine-3-carboxylate], the IC50 was under 0.1 µM.

`CC(=O)C1=C(C)NC(C)=C(C(C)=O)C1c1csc2ccc(Cl)cc12` [Example H1, 1,1′-(4-(5-chlorobenzo[b]thiophen-3-yl)-2,6-dimethyl-1,4-dihydropyridine-3,5-diyl)diethanone]: the IC50 was under 0.1 µM.

For `COC(=O)C1=C(C2CC2)NC(C2CC2)=C(C(C)=O)C1c1csc2ccccc12` (stereo not shown) [Example J24, Methyl 5-acetyl-4-(benzo[b]thiophen-3-yl)-2,6-dicyclopropyl-1,4-dihydropyridine-3-carboxylate], the IC50 was at least 1 µM.

Take `COC(=O)C1=C(C)NC(C)=C(C(C)=O)C1c1csc2ccccc12` (single isomer, unassigned) [Example A3, Methyl 5-acetyl-4-(benzo[b]thiophen-3-yl)-2,6-dimethyl-1,4-dihydro-pyridine-3-carboxylate]: the IC50 is under 0.1 µM.

As for `CC(=O)C1=C(C)NC(C2CC2)=C(C(=O)C2CC2)C1c1csc2ccccc12` (stereo not shown) [Example B18, 1-(4-(Benzo[b]thiophen-3-yl)-5-(cyclopropanecarbonyl)-6-cyclopropyl-2-methyl-1,4-dihydropyridin-3-yl)ethan-1-one], the IC50 is under 0.1 µM.
